For eleven compounds, survival results are on record in PubChem BioAssay AID1344 (Sanford-Burnham Center for Chemical Genomics, 2008).

SMILES strings stand for the structures.

In the experiment the test system is CSM14.1 thapsigargin death, annexin V/PI flow, 24 h. Nature of the experiment: annexin V/PI survival after thapsigargin – cell-based, undifferentiated CSM14.1, flow cytometry, orthogonal assay for ER stress death inhibitor project, late-stage follow-up (AID 1344). The note with it: at 25 µM; stronger effect = higher value.
In the case of `COc1ccc(C2CC(=O)C3=C(C2)Nc2ccccc2NC3c2cccc(Br)c2)cc1OC` (stereo unspecified), the survival was 96%.
Next, `CC1(C)CC(=O)C2=C(C1)Nc1ccccc1NC2c1ccc(-c2ccccc2)cc1` (stereo unspecified): 97%.
Next, `O=C1CC(c2ccccc2)CC2=C1C(c1c(F)cccc1Cl)Nc1ccccc1N2` (stereo unspecified): 96%; `COc1ccc(C2CC(=O)C3=C(C2)Nc2ccccc2NC3c2cccc(Oc3ccccc3)c2)cc1OC` (stereo unspecified): 95%; `COc1ccc(C2CC(=O)C3=C(C2)Nc2ccccc2NC3c2cc(C)ccc2C)cc1` (stereo unspecified): 95%.
Next, `CCOc1cccc(C2Nc3ccccc3NC3=C2C(=O)CC(c2ccc(OC)cc2)C3)c1` (stereo unspecified): 90%; `CSc1ccc(C2Nc3ccccc3NC3=C2C(=O)CC(c2ccccc2)C3)cc1` (stereo unspecified): 96%; `CCOc1cc(C2Nc3ccccc3NC3=C2C(=O)CC(c2ccc(OC)cc2)C3)cc(Cl)c1O` (stereo unspecified): 93%.
Take `COc1ccc(C2CC(=O)C3=C(C2)Nc2ccccc2NC3c2cccc(C(F)(F)F)c2)cc1OC` (stereo unspecified): the survival is 95%.
`CCCOc1ccc(C2Nc3ccccc3NC3=C2C(=O)CC(c2ccc(OC)c(OC)c2)C3)cc1` (stereo unspecified): the survival is 92%.
Next, `COc1ccc(C2CC(=O)C3=C(C2)Nc2ccccc2NC3c2ccccc2C(F)(F)F)cc1OC` (stereo unspecified): 96%.
